Results on 15 molecules are retold here after ChEMBL document CHEMBL4351016 (Eur J Med Chem, 2019).

Experiment [1] relates to CWR22R. Briefly: Antiproliferative activity against AR-positive human 22Rv1 cells harboring ARE14 construct assessed as growth inhibition after 24 hrs by resazurin dye based fluorescence assay. The note with it: 22Rv1, 24 h. It counts as functional.
For a further experiment, the system named is VCaP. Briefly: Antiproliferative activity against AR-positive human VCaP cells assessed as growth inhibition after 72 hrs by resazurin dye based fluorescence assay. It counts as functional.
The subject of experiment [2] is CWR22R. Briefly: Effect on AR-V7 protein expression in AR-positive human 22Rv1 cells harboring ARE14 construct at 5 uM after 24 hrs by immunoblot analysis. It counts as functional, cell-based.
Experiment [3] has as its target T1, Androgen receptor (Homo sapiens) (UniProt P10275).
T1 sequence (whole entry): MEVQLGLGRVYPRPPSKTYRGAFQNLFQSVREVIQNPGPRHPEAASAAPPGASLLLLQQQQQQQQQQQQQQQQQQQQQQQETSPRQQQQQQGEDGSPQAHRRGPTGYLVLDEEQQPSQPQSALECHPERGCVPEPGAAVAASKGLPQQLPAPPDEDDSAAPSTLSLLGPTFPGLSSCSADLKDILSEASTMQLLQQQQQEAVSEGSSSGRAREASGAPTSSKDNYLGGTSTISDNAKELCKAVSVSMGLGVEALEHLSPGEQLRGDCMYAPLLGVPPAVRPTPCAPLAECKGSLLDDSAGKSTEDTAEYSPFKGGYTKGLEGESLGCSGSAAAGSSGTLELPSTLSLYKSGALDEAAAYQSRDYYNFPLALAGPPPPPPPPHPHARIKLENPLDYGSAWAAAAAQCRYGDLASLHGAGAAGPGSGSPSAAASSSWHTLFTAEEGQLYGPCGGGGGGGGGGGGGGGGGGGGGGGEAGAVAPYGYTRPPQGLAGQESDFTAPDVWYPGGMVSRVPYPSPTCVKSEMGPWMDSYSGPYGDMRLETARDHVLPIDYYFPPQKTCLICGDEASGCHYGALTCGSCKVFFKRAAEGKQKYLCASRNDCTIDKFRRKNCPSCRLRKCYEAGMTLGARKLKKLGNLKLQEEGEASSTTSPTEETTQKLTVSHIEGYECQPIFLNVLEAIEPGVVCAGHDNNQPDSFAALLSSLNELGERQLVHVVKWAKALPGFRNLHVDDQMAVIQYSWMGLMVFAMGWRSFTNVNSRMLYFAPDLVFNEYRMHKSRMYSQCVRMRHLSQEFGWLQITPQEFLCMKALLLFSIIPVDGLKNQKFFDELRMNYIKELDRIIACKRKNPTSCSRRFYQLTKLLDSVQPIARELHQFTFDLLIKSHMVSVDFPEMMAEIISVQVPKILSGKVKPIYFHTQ
Briefly: Inhibition of AR transcriptional activity in AR-positive human 22Rv1 cells harboring ARE14 construct assessed as decrease in PSA protein expression at 5 uM after 24 hrs by immunoblot analysis.

For another experiment, the system named is PC-3. Briefly: Antiproliferative activity against AR-negative human PC3 cells assessed as growth inhibition after 72 hrs by resazurin dye based fluorescence assay. The experiment is classed as functional. Particulars: PC-3, 72 h.
The subject of the next experiment is BJ. Briefly: Antiproliferative activity against human BJ cells assessed as growth inhibition after 24 hrs by resazurin dye based fluorescence assay. It counts as functional.
Experiment [4] concerns the target T1, Androgen receptor (Homo sapiens). Briefly: Inhibition of AR transcriptional activity in AR-positive human 22Rv1 cells harboring ARE14 construct assessed as downregulation of NKX3.1 protein expression at 5 uM after 24 hrs by immunoblot analysis.
Experiment [5] deals with CWR22R. Briefly: Antiproliferative activity against AR-positive human 22Rv1 cells harboring ARE14 construct assessed as growth inhibition after 72 hrs by resazurin dye based fluorescence assay. The experiment is classed as functional. Particulars: 22Rv1, 72 h.
For a further experiment, the system named is LNCaP C4-2. Briefly: Antiproliferative activity against AR-positive human C4-2 cells assessed as growth inhibition after 72 hrs by resazurin dye based fluorescence assay. The experiment is classed as functional. The note with it: LNCaP C4-2, 72 h.

The source made the active and inactive calls. The rule behind the calls is not given here.

Consider `C[C@]12CC[C@H](O)CC1=CC[C@@H]1[C@@H]2CC[C@]2(C)/C(=N/n3cnc4ccccc43)CC[C@@H]12`, for which the GI50 in the experiment with CWR22R [1] was > 50 µM; in the experiment on VCaP, > 50 µM; with PC-3, 11.5 µM; in the experiment with BJ, > 50 µM; in the experiment with CWR22R [5] it was > 50 µM; in the experiment with LNCaP C4-2 it was > 50 µM. For the same molecule, in the experiment on CWR22R [2], the outcome was inactive. The “PSA protein decrease (active/not active)” value in experiment [3] is “inactive”. Also, the “NKX3.1 protein downregulation (active/not active)” value in experiment [4] was “inactive”.
`CC(=O)O[C@H]1CC[C@@]2(C)C(=CC[C@@H]3[C@@H]2CC[C@]2(C)c4c(C)nc5c(c4C[C@@H]32)c2ccccc2n5C)C1`: the GI50 in the experiment with CWR22R [1], in the experiment on VCaP, with PC-3, in the experiment on BJ, in the experiment with CWR22R [5] and in the experiment with LNCaP C4-2 was > 50 µM each time. Further, the result in the experiment on CWR22R [2] was inactive. Also, the “PSA protein decrease (active/not active)” value in experiment [3] is “inactive”. For the same molecule, the “NKX3.1 protein downregulation (active/not active)” value in [4] was “inactive”.
For `Cc1nc(N2CCc3ccccc3C2)nc2c1[C@@]1(C)CC[C@H]3[C@@H](CC=C4C[C@@H](O)CC[C@@]43C)[C@@H]1C2`, the 50% growth inhibitory concentration (GI50) in the experiment with CWR22R [1] was > 50 µM; in the experiment with VCaP, 20.7 µM; with PC-3, 7.8 µM; in the experiment on BJ, 22.5 µM; in the experiment on CWR22R [5], 12.4 µM; in the experiment with LNCaP C4-2, 12.7 µM. Moreover, in the experiment with CWR22R [2], the outcome was inactive. Also, the “NKX3.1 protein downregulation (active/not active)” value in experiment [4] is “Active”.
As for `CC(=O)O[C@H]1CC[C@@]2(C)C(=CC[C@@H]3[C@@H]2CC[C@]2(C)c4c(C)nc5nc6cc(C)c(C)cc6n5c4C[C@@H]32)C1`, the GI50 with CWR22R [1] is > 50 µM; in the experiment on VCaP, > 50 µM; in the experiment on PC-3 it was > 50 µM; in the experiment with BJ, > 50 µM; in the experiment with CWR22R [5] it was 40 µM; with LNCaP C4-2, 36.5 µM. Besides, the result in the experiment on CWR22R [2] was inactive. Moreover, in experiment [3], the “PSA protein decrease (active/not active)” value is “inactive”. Besides, the “NKX3.1 protein downregulation (active/not active)” value in [4] is “inactive”.
With `CC(=O)O[C@H]1CC[C@@]2(C)C(=CC[C@H]3[C@@H]4C[C@@H](Nc5nc6ccccc6[nH]5)[C@@H](C(C)=O)[C@@]4(C)CC[C@@H]32)C1`, the concentration for 50% growth inhibition (GI50) in the experiment on CWR22R [1] is > 50 µM; in the experiment with VCaP, 20.3 µM; in the experiment with PC-3, 29.5 µM; with BJ it was 48.3 µM; with CWR22R [5], 6.2 µM; in the experiment with LNCaP C4-2, 11.9 µM. The outcome in the experiment with CWR22R [2] was inactive. Further, the “PSA protein decrease (active/not active)” value in experiment [3] was “inactive”. In addition, in [4], the “NKX3.1 protein downregulation (active/not active)” value is “inactive”.
Take `CC(=O)O[C@H]1CC[C@@]2(C)C(=CC[C@@H]3[C@@H]2CC[C@]2(C)c4c(C)nc5nccn5c4C[C@@H]32)C1`: the GI50 in the experiment with CWR22R [1] is > 50 µM; in the experiment on VCaP, > 50 µM; in the experiment with PC-3, > 50 µM; in the experiment with BJ, > 50 µM; with CWR22R [5] it was 26.3 µM; with LNCaP C4-2, > 50 µM. Moreover, the result in the experiment on CWR22R [2] was inactive. The “PSA protein decrease (active/not active)” value in [3] is “inactive”. Moreover, the “NKX3.1 protein downregulation (active/not active)” value in experiment [4] was “inactive”.
`CC(=O)O[C@H]1CC[C@@]2(C)C(=CC[C@H]3[C@@H]4C[C@@H](Nc5nc6ccccc6s5)[C@H](C(C)=O)[C@@]4(C)CC[C@@H]32)C1`: the GI50 in the experiment with CWR22R [1] was > 50 µM; with VCaP, > 50 µM; with PC-3 it was > 50 µM; in the experiment with BJ, > 50 µM; in the experiment on CWR22R [5], 13.2 µM; with LNCaP C4-2, 34.1 µM. In the experiment on CWR22R [2], the outcome was inactive. Further, the “PSA protein decrease (active/not active)” value in experiment [3] is “inactive”. Besides, the “NKX3.1 protein downregulation (active/not active)” value in experiment [4] was “inactive”.
On to `CC(=O)O[C@H]1CC[C@@]2(C)C(=CC[C@@H]3[C@@H]2CC[C@@]2(C)[C@H]3C[C@@H]3C(=O)[C@@]2(C)Nc2nc4cc(C)c(C)cc4n23)C1`, for which the GI50 in the experiment on CWR22R [1] is > 50 µM; with VCaP, > 50 µM; with PC-3 it was > 50 µM; with BJ it was > 50 µM; with CWR22R [5], 7.4 µM; in the experiment with LNCaP C4-2, > 50 µM. Besides, in the experiment with CWR22R [2], the outcome was inactive. Also, in experiment [3], the “PSA protein decrease (active/not active)” value was “inactive”. The “NKX3.1 protein downregulation (active/not active)” value in experiment [4] was “inactive”.
As to `CC(=O)O[C@H]1CC[C@@]2(C)C(=CC[C@@H]3[C@@H]2CC[C@]2(C)c4c(C)nc5nc6ccc(Cl)cc6n5c4C[C@@H]32)C1`, the GI50 with CWR22R [1] is > 50 µM; in the experiment with VCaP, > 50 µM; in the experiment with PC-3 it was > 50 µM; with BJ it was 50 µM; with CWR22R [5], 29.9 µM; in the experiment on LNCaP C4-2, 24.4 µM. Also, the result in the experiment on CWR22R [2] was inactive. The “PSA protein decrease (active/not active)” value in experiment [3] was “inactive”. The “NKX3.1 protein downregulation (active/not active)” value in [4] is “inactive”.
As to `CC(=O)O[C@H]1CC[C@@]2(C)C(=CC[C@@H]3[C@@H]2CC[C@]2(C)c4c(C)nc5nc6ccccc6n5c4C[C@@H]32)C1`, the GI50 is > 50 µM with CWR22R [1]; > 50 µM in the experiment with VCaP; > 50 µM with PC-3; 44.9 µM in the experiment on BJ; 7.2 µM in the experiment with CWR22R [5]; 22.5 µM in the experiment with LNCaP C4-2. In addition, the result in the experiment with CWR22R [2] was inactive. In addition, the “PSA protein decrease (active/not active)” value in experiment [3] is “inactive”. In experiment [4], the “NKX3.1 protein downregulation (active/not active)” value is “inactive”.
With `COc1ccc2c(C)c3c(nc2n1)C[C@H]1[C@@H]2CC=C4C[C@@H](O)CC[C@]4(C)[C@H]2CC[C@]31C`, the GI50 in the experiment on CWR22R [1] is > 50 µM; in the experiment on VCaP, > 50 µM; in the experiment on PC-3, > 50 µM; in the experiment on BJ, > 50 µM; in the experiment with CWR22R [5], 4.3 µM; in the experiment with LNCaP C4-2 it was 1.1 µM. Moreover, the result in the experiment on CWR22R [2] was inactive. In addition, the “PSA protein decrease (active/not active)” value in [3] was “Active”. Moreover, the “NKX3.1 protein downregulation (active/not active)” value in experiment [4] is “Active”.
Take `CC(=O)O[C@H]1CC[C@@]2(C)C(=CC[C@@H]3[C@@H]2CC[C@]2(C)c4c(C)nc5nc6cc(Cl)ccc6n5c4C[C@@H]32)C1`: the 50% growth inhibitory concentration (GI50) in the experiment with CWR22R [1], in the experiment on VCaP, with PC-3, with BJ, in the experiment on CWR22R [5] and with LNCaP C4-2 was > 50 µM each time. Further, the result with CWR22R [2] was inactive. Further, the “PSA protein decrease (active/not active)” value in experiment [3] was “inactive”. In [4], the “NKX3.1 protein downregulation (active/not active)” value was “inactive”.
`CC(=O)O[C@H]1CC[C@@]2(C)C(=CC[C@@H]3[C@@H]2CC[C@@]2(C)[C@H]3C[C@@H]3C(=O)[C@@]2(C)Nc2nc4ccc(Cl)cc4n23)C1`: the GI50 in the experiment with PC-3, in the experiment with CWR22R [5] and in the experiment with LNCaP C4-2 was > 50 µM each time.
As to `CC(=O)O[C@H]1CC[C@@]2(C)C(=CC[C@@H]3[C@@H]2CC[C@@]2(C)[C@H]3C[C@@H]3C(=O)[C@@]2(C)Nc2nc4ccccc4n23)C1`, the GI50 in the experiment on CWR22R [1] was > 50 µM; with VCaP it was > 50 µM; in the experiment on PC-3, > 50 µM; in the experiment on BJ, > 50 µM; in the experiment on CWR22R [5], 5.4 µM; with LNCaP C4-2, 18 µM. For the same molecule, the outcome with CWR22R [2] was inactive. Further, in [3], the “PSA protein decrease (active/not active)” value is “inactive”. Also, in [4], the “NKX3.1 protein downregulation (active/not active)” value was “inactive”.
Consider `CC(=O)O[C@H]1CC[C@@]2(C)C(=CC[C@@H]3[C@@H]2CC[C@@]2(C)[C@H]3C[C@@H]3C(=O)[C@@]2(C)Nc2nc4cc(Cl)ccc4n23)C1`, for which the GI50 in the experiment on PC-3, with CWR22R [5] and with LNCaP C4-2 was > 50 µM throughout.
